The results in this text go back to US20090203700A1, “Azolylmethyloxiranes, Their Use for Controlling Phytopathogenic Fungi, and Compositions Comprising Them” (BASF SE, priority 2006, published 2009).

For one assay, the system named is Puccinia recondita. The assay can be described thus: Protective activity against Puccinia recondita on wheat (brown rust of wheat) (Puccrt P1). The note with it: 250 ppm active compound, sprayed to runoff on potted wheat seedlings, inoculated next day; untreated plants 90% infected. In kind it is in vivo. The method, then:
The active compounds were prepared separately or jointly as a stock solution comprising 25 mg of active compound which was made up to 10 ml using a mixture of acetone and/or DMSO and the emulsifier Wettol EM 31 (wetting agent having emulsifying and dispersing action based on ethoxylated alkylphenols) in a volume ratio of solvent/emulsifier of 99:1. The mixture was then made up to 100 ml with water. This stock solution was diluted with the solvent/emulsifier/water mixture described to give the concentration of active compound stated below. Leaves of potted wheat seedlings were sprayed to runoff point with an aqueous suspension having the active compound concentration stated below. The next day, the treated plants were inoculated with a spore suspension of brown rust of wheat (Puccinia recondita). The plants were then placed in a chamber with high atmospheric humidity (90 to 95%) at 20 to 22° C. for 24 hours. During this time, the spores germinated and the germ tubes penetrated into the leaf tissue. The next day, the test plants were returned to the greenhouse and cultivated at temperatures between 20 and 22° C. and at 65 to 70% relative atmospheric humidity for a further 7 days. The extent of the rust fungus development on the leaves was then determined visually.

Another assay deals with Pyrenophora teres. The assay can be described thus: Activity against net blotch of barley caused by Pyrenophora teres, 1 day protective application (Pyrnte P1). To be noted: 250 ppm active compound, sprayed to runoff on potted barley seedlings, inoculated after 24 hours, assessed after 6 days; untreated plants 90% infected. It counts as in vivo, Pyrenophora [syn. Drechslera] teres on barley. The method, then: The active compounds were prepared separately or jointly as a stock solution comprising 25 mg of active compound which was made up to 10 ml using a mixture of acetone and/or DMSO and the emulsifier Wettol EM 31 (wetting agent having emulsifying and dispersing action based on ethoxylated alkylphenols) in a volume ratio of solvent/emulsifier of 99:1. The mixture was then made up to 100 ml with water. This stock solution was diluted with the solvent/emulsifier/water mixture described to give the concentration of active compound stated below. Leaves of potted barley seedlings were sprayed to runoff point with an aqueous suspension having the active compound concentration stated below. 24 hours after the spray coating had dried on, the test plants were inoculated with an aqueous spore suspension of Pyrenophora [syn. Drechslera] teres, the net blotch pathogen. The test plants were then placed in a greenhouse at temperatures between 20 and 24° C. and at 95 to 100% relative atmospheric humidity. After 6 days, the extent of the development of the disease was determined visually in % infection of the entire leaf area.

For the compound `Fc1ccc([C@@]2(Cn3cncn3)O[C@@H]2c2cccnc2Cl)cc1` (racemic) [3-{(2RS,3SR)-3-[(1H-1,2,4-triazol-1-yl)methyl]-3-[4-fluorophenyl]oxiran-2-yl}-2-chloropyridine], the “infection (extent of rust fungus development on the leaves, determined visually)” value in the assay on Puccinia recondita is “not more than 10%”. Moreover, the “infection (% infection of the entire leaf area, determined visually)” value in the assay with Pyrenophora teres is given as “not more than 20%”.
